According to ChEMBL document CHEMBL1201862, “PubChem BioAssay data set” (2004):
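How tested: cells in 96-well plates exposed to compound for 48 hours at five concentrations. GI50 = concentration required for 50% inhibition of growth.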 Activity calls are given as the source filed them. Cut-off read from the data, not from the text of the source: active = GI50 up to about 1.1 µM and inactive = higher.

Legend:
Test in all cases: NCI tumour cell line growth inhibition, 48 h
SF-295 = test system: SF-295
OVCAR-5 = test system: OVCAR-5
SW-620 = test system: SW-620
786-0 = test system: 786-0
M14 = test system: M14
K562 = test system: K562
SF-268 = test system: SF-268
NCI-H23 = test system: NCI-H23
UACC-257 = test system: UACC-257
LOX IMVI = test system: LOX IMVI
A498 = test system: A498
OVCAR-8 = test system: OVCAR-8
HOP-18 = test system: HOP-18
SK-MEL-28 = test system: SK-MEL-28
SF-539 = test system: SF-539
SNB-75 = test system: SNB-75
SK-MEL-2 = test system: SK-MEL-2

Measured: GI50

CCCCCCCCOCC(CO)OCCCCCCCC (stereo unspecified)
inactive: SF-295 16.3 µM | OVCAR-5 17.9 µM | SW-620 19.8 µM | 786-0 19.6 µM | M14 26.1 µM | K562 18.4 µM | SF-268 15 µM | NCI-H23 18.7 µM | UACC-257 21.3 µM | LOX IMVI 17.6 µM | A498 18.8 µM | OVCAR-8 19.3 µM | HOP-18 11.7 µM | SK-MEL-28 19.2 µM

Cn1cc(NC(=O)c2cc(NC(=O)Nc3cc(C(=O)Nc4cc(C(=O)NCCC(=N)N)n(C)c4)n(C)c3)cn2C)cc1C(=O)NCCC(=N)N
inactive: SF-295 33.9 µM | OVCAR-5 > 100 µM | SW-620 > 100 µM | 786-0 20.7 µM | M14 20.4 µM | SF-539 18 µM | K562 51.8 µM | SF-268 36.4 µM | NCI-H23 37.4 µM | UACC-257 17.7 µM | SNB-75 40.5 µM | LOX IMVI 25.4 µM | A498 25.1 µM | OVCAR-8 22.8 µM | HOP-18 71.4 µM | SK-MEL-28 25.4 µM

CCc1cccc(C(C)C)c1NC(=O)C(=O)C1C(=O)NC(=O)NC1=O
inactive: SF-295 > 100 µM | OVCAR-5 > 100 µM | SW-620 > 100 µM | 786-0 > 100 µM | M14 > 100 µM | SF-539 > 100 µM | K562 > 100 µM | SF-268 > 100 µM | NCI-H23 > 100 µM | UACC-257 > 100 µM | SNB-75 69.5 µM | LOX IMVI > 100 µM | A498 > 100 µM | OVCAR-8 > 100 µM | HOP-18 > 100 µM | SK-MEL-28 > 100 µM

CC1CC(=O)C(C(O)CC2CC(=O)N(c3ccccc3)C(=O)C2)C(C)C1 (stereo unspecified)
inactive: SF-295 > 100 µM | OVCAR-5 > 100 µM | SW-620 > 100 µM | 786-0 > 100 µM | M14 > 100 µM | SF-539 > 100 µM | K562 > 100 µM | SF-268 > 100 µM | NCI-H23 > 100 µM | UACC-257 > 100 µM | SNB-75 > 100 µM | LOX IMVI > 100 µM | A498 > 100 µM | OVCAR-8 > 100 µM | HOP-18 > 100 µM | SK-MEL-28 > 100 µM

COC(=O)C(Cc1cc(OC)c(OC)c(OC)c1)c1ccc(OC)cc1 (stereo unspecified)
inactive: SF-295 > 100 µM | OVCAR-5 44.7 µM | SW-620 > 100 µM | 786-0 > 100 µM | M14 > 100 µM | SF-539 > 100 µM | K562 88.9 µM | SF-268 > 100 µM | UACC-257 > 100 µM | LOX IMVI 79.3 µM | A498 > 100 µM | OVCAR-8 > 100 µM | HOP-18 > 100 µM | SK-MEL-28 > 100 µM

CC(C)(C)C[P+](C)(C)c1ccccc1
inactive: SF-295 > 100 µM | OVCAR-5 76 µM | SW-620 > 100 µM | 786-0 > 100 µM | M14 > 100 µM | SF-539 > 100 µM | K562 34.4 µM | SF-268 > 100 µM | NCI-H23 > 100 µM | UACC-257 > 100 µM | SK-MEL-2 > 100 µM | SNB-75 > 100 µM | LOX IMVI > 100 µM | OVCAR-8 > 100 µM | HOP-18 > 100 µM | SK-MEL-28 > 100 µM

Cc1ccc(-n2c(=S)[nH]c3ccc(Br)cc3c2=O)cc1
inactive: SF-295 > 100 µM | OVCAR-5 > 100 µM | SW-620 > 100 µM | 786-0 > 100 µM | SF-539 > 100 µM | K562 > 100 µM | SF-268 > 100 µM | NCI-H23 > 100 µM | UACC-257 > 100 µM | SK-MEL-2 > 100 µM | SNB-75 > 100 µM | LOX IMVI > 100 µM | A498 > 100 µM | OVCAR-8 > 100 µM | HOP-18 > 100 µM

CC(=O)O[C@]12CCC[C@H]1C1(O)C(O)CCC[C@H]12 (stereo partly specified)
inactive: SF-295 > 100 µM | SW-620 > 100 µM | 786-0 > 100 µM | M14 > 100 µM | K562 > 100 µM | SF-268 > 100 µM | NCI-H23 > 100 µM | UACC-257 > 100 µM | SK-MEL-2 > 100 µM | SNB-75 > 100 µM | LOX IMVI > 100 µM | OVCAR-8 > 100 µM | HOP-18 > 100 µM | SK-MEL-28 > 100 µM

N#CC(C(=O)CCCC(=O)Nc1ccc(Cl)cc1Cl)c1ccccc1 (stereo unspecified)
inactive: SF-295 > 100 µM | OVCAR-5 > 100 µM | SW-620 > 100 µM | 786-0 > 100 µM | M14 > 100 µM | SF-539 > 100 µM | K562 > 100 µM | SF-268 > 100 µM | NCI-H23 > 100 µM | UACC-257 > 100 µM | SK-MEL-2 > 100 µM | LOX IMVI > 100 µM | OVCAR-8 > 100 µM | HOP-18 > 100 µM | SK-MEL-28 > 100 µM

CCOC(OC1=C(C#N)CCCC1)C(CC)[Se]c1ccccc1 (stereo unspecified)
inactive: SF-295 27.6 µM | OVCAR-5 32.4 µM | 786-0 17.4 µM | M14 26.3 µM | SF-539 14.3 µM | K562 38.9 µM | SF-268 12.1 µM | NCI-H23 14.3 µM | UACC-257 46.7 µM | SK-MEL-2 29.4 µM | SNB-75 29.3 µM | LOX IMVI 9.25 µM | A498 13.6 µM | OVCAR-8 16.8 µM | HOP-18 16.4 µM | SK-MEL-28 23.6 µM

COC(=O)/C(C#N)=C1\NN=NN1c1ccc(OC)cc1
inactive: SF-295 > 100 µM | SW-620 > 100 µM | 786-0 > 100 µM | M14 > 100 µM | SF-539 > 100 µM | K562 > 100 µM | NCI-H23 > 100 µM | UACC-257 > 100 µM | SNB-75 > 100 µM | LOX IMVI > 100 µM | A498 > 100 µM | OVCAR-8 > 100 µM | HOP-18 > 100 µM | SK-MEL-28 > 100 µM

CC(C)(C)OC(=O)N[C@H]1CC(=O)c2ccccc2N(CC(=O)O)C1=O
inactive: SF-295 > 100 µM | SW-620 > 100 µM | 786-0 > 100 µM | M14 > 100 µM | SF-539 > 100 µM | SF-268 > 100 µM | NCI-H23 > 100 µM | UACC-257 > 100 µM | SK-MEL-2 > 100 µM | SNB-75 81.1 µM | LOX IMVI > 100 µM | OVCAR-8 > 100 µM | HOP-18 > 100 µM | SK-MEL-28 > 100 µM

c1ccc2c(c1)CCC/C2=N\OCC1CO1 (stereo unspecified)
inactive: SF-295 70.1 µM | OVCAR-5 > 100 µM | SW-620 92.9 µM | 786-0 > 100 µM | M14 80.9 µM | SF-539 > 100 µM | K562 43.8 µM | SF-268 52.4 µM | NCI-H23 80 µM | UACC-257 > 100 µM | SK-MEL-2 61.2 µM | SNB-75 > 100 µM | LOX IMVI 36.3 µM | A498 82 µM | OVCAR-8 81.7 µM | HOP-18 66.2 µM
